Experiments:
[1] = water solubility at 25° C.; type: physicochemical; details: aqueous
[2] = storage stability at 40° C. and 75% relative humidity; type: physicochemical; details: stored at 40° C. and 75% relative humidity for up to four weeks
Description: Instead, the melting of Form I is observed to recrystallize to another, metastable form having a melting point of about 172.5° C.

| SMILES | solubility [1] [µg/mL] | stability of form, morphology and purity on storage [2] |
| --- | --- | --- |
| CC(C)C[C@](C)(N)COc1ccc(-c2ccnc(C(F)F)c2)nc1C(F)F.Cl [Compound S, (S)-1-((2′,6-bis(difluoromethyl)-[2,4′-bipyridin]-5-yl)oxy)-2,4-dimethylpentan-2-amine hydrochloride] | 2900 | – |
| CC(C)C[C@](C)(N)COc1ccc(-c2ccnc(C(F)F)c2)nc1C(F)F [Compound K, ((S)-1-((2′,6-bis(difluoromethyl)-[2,4′-bipyridin]-5-yl)oxy)-2,4-dimethylpentan-2-aminiumdihydrogen phosphate] | – | neither the form itself, its morphology, nor its purity changed |
